Among the data in the METLIN SMRT retention time set (Domingo-Almenara et al. 2019) are RP-LC retention time values, retold here.

This data set in a line: gradient 5% acetonitrile 3 min, to 50% in 2 min, to 85% in 15 min, held 3 min, 100 µL/min. To be noted: column: Zorbax Extend-C18 2.1 x 50 mm; eluents: water / acetonitrile, 0.1% formic acid. Summed up: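 Retention times of pure standards were taken from adduct peaks that were selected by computer and manually inspected. Over 3 months, mixtures of ~100 molecules were run by HPLC–quadrupole time-of-flight mass spectrometry in positive and negative ionization mode. The Zorbax Extend-C18 column (2.1 × 50 mm, 1.8 μm) ran at 100 μL/min in water and acetonitrile, each containing 0.1% formic acid, with 40 μL dead volume and 900 μL dwell volume.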
The compound `CCN1C(=O)c2c(C(=O)NCc3ccc(F)cc3)ncn2CC1(C)C(=O)NC1CCCC1` (stereo not given) showed an RP-LC retention time of 764 s. On to `COc1ccc(-c2c(C(=O)O)nnn2-c2ccc(OC)c(OC)c2)cc1`, for which the RP-LC retention time worked out at 712 s. Regarding `COc1cccc(-c2noc(Cn3c(=O)n(-c4ccc(Cl)cc4)c(=O)c4sccc43)n2)c1`, the RP-LC retention time worked out at 1050 s. `Cc1ccc(-c2csc(NC(=O)COc3ccccc3C(C)(C)C)n2)cc1` gave an RP-LC retention time of 1380 s. In the case of `Cc1ccc(S(=O)(=O)N(C)c2ccc(C(=O)N3C(C)CCCC3C)cc2)cc1` (stereo not given) it was 961 s; in that of `CCCCN1C(=O)C2(NCCc3c2[nH]c2ccc(OC)cc32)c2cc(Br)ccc21` (stereo not given), 763 s; in that of `O=C1[C@H]2CN(Cc3ccc(C(F)(F)F)cc3)C[C@H]2C(=O)N1CCc1ccccc1`, 984 s. For `COc1ccc(C(O)CN2CCN(C3CCCCC3)CC2)cc1` (stereo not given), the RP-LC retention time was 540 s. For the compound `Cc1cc(-c2nnc(-c3ccco3)o2)c(C)n1CC(=O)Nc1cccc(F)c1`, the RP-LC retention time is 881 s.

As to `CCCn1cc(-c2nc(-c3cccnc3)no2)c(=O)c2cc(F)ccc21`, the RP-LC retention time came to 770 s.

Compound `CCCCn1c(CNC(=O)c2cccs2)nnc1SCC(=O)OCC` showed an RP-LC retention time of 713 s. `Cc1noc(C)c1CCC(=O)NCCOc1ccc2nnc(-c3cccc(F)c3)n2n1` returned an RP-LC retention time of 633 s. For the compound `CN1CCN(C(=O)c2cc(-c3ccccc3)cn2C)CC1`, the RP-LC retention time is 619 s. `Cc1cc(N2CCN(S(=O)(=O)c3ccc(-c4ccccc4)cc3)CC2)nc(NC2CCCCC2)n1` yielded an RP-LC retention time of 970 s.

With `CCn1cc(C(=O)NCc2ccc(C)cc2)c(S(=O)(=O)N2CCSCC2)n1`, the RP-LC retention time came to 944 s. The value for `C[C@@H](Oc1ccc(S(C)(=O)=O)cc1C(=O)N1CCN(c2ncc(C(F)(F)F)cc2F)CC1)C(F)(F)F` was 1090 s. Turning to `Cc1ccc(C(O)CN2CCN(c3ccccc3C)CC2)cc1` (stereo not given), the RP-LC retention time was found to be 718 s. `Cn1cc(C2=CCN(S(=O)(=O)c3cccc(C#N)c3)CC2)c2cccnc21`: the RP-LC retention time came to 904 s. The compound `CCCNS(=O)(=O)c1cc(-c2nnc(-c3ccccc3)o2)ccc1F` yielded an RP-LC retention time of 939 s. With `O=C(c1cc2ccccc2o1)N1CCC(CNS(=O)(=O)C2CC2)CC1`, the RP-LC retention time came to 712 s. For the compound `N#Cc1ccccc1OCC(O)CNCCNC(=O)Nc1ccccc1` (stereo not given), the RP-LC retention time is 696 s. In the case of `COc1ccc(-c2csc(NC(=O)CCn3c(=O)sc4ccccc43)n2)cc1`, the RP-LC retention time was found to be 982 s. Regarding `CCN(CC)S(=O)(=O)c1ccc2c(c1)N(CC(=O)N1CCCCC1)C(=O)C1CCCCN21` (stereo not given), the RP-LC retention time is 905 s. As to `O=C(C1CCCO1)N1CCC(CCOc2ccccc2)CC1` (stereo not given), the RP-LC retention time came out at 844 s. `Cc1cc(N2CCN([C@@H]3CN[C@H](C(=O)N4CCSC4)C3)CC2)n(-c2ccccc2)n1` yielded an RP-LC retention time of 653 s. `COc1ccc2c(c1)C1(CCN(C(=O)Cc3ccc(Cl)cc3)C1)C(=O)N2C` (stereo not given) came in with an RP-LC retention time of 873 s. Compound `COCc1nnc(NC(=O)C2CCN(C(=O)c3ccccc3Cl)CC2)s1` had an RP-LC retention time of 670 s.

The compound `CCCN1CCN(c2ccc(-c3nc(-c4ccccc4)no3)cn2)CC1` yielded an RP-LC retention time of 715 s. Regarding `O=C(Cn1ccc2c(SCc3ccc(F)cc3)nccc21)NCc1ccc2c(c1)OCO2`, the RP-LC retention time was 744 s. Compound `CCN1CCN(CCCNC(=O)c2ccc3c(c2)N(C)C(=O)C2CCCCN32)CC1` (stereo not given) came in with an RP-LC retention time of 554 s. Take `O=C(NC1CC1)c1cc2cc(Cl)ccc2[nH]1`: the RP-LC retention time turned out to be 809 s. The compound `CCNC(=O)C1CCc2sc(C(=O)N(C)C)cc2C1` (stereo not given) showed an RP-LC retention time of 617 s. The value for `CC(C)(C)C(=O)Nc1ccc(NC(=O)C(C)(C)C)cc1` was 838 s; that for `COc1ccc(C(O)CN2CCN(c3ccc(F)cc3)CC2)cc1OC` (stereo not given) was 636 s; that for `CCc1cccc(-n2nnc(C(=O)NCCOC)c2-c2ccncc2)c1` was 715 s. For the compound `COc1ccc(NS(=O)(=O)c2cc3n(c2)CCN(C(C)C)C3=O)cc1`, the RP-LC retention time amounted to 717 s.

For `CCCCNC(=O)CCc1nc(N2CCCCCC2)c2c(C)noc2n1`, the RP-LC retention time turned out to be 842 s. In turn, `Cc1ccc(CNC(=O)C2CCN(S(=O)(=O)c3cc(C(=O)N4CCCC4)n(C)c3)CC2)o1` showed an RP-LC retention time of 699 s. Compound `CCCn1cc(C(=O)NCc2cccs2)c2cccnc21` registered an RP-LC retention time of 799 s. The compound `CCC(C)NC(=O)CCn1c(=O)c2ccccc2n2c(=O)n(Cc3cccc(F)c3)nc12` (stereo not given) displayed an RP-LC retention time of 816 s. `Cc1nc(-c2cc(S(=O)(=O)Nc3ccccc3Cl)c(C)s2)sc1C` yielded an RP-LC retention time of 1120 s. Take `CCN1C(=O)c2cccnc2Sc2cc(CNC(=O)c3cnccn3)ccc21`: the RP-LC retention time amounted to 683 s.

`CCOC(=O)c1csc(NC(=O)c2ccc3ncsc3c2)n1` yielded an RP-LC retention time of 726 s.

Regarding `CC(C)n1cc(S(=O)(=O)NCc2cccc(F)c2)c2cccnc21`, the RP-LC retention time amounted to 926 s. Regarding `Cc1ccc(NC(=O)C2CCCN2S(=O)(=O)c2cc3c(cc2C)NC(=O)C(C)O3)cc1Cl` (stereo not given), the RP-LC retention time was 892 s. In the case of `CCN(CC)C(=O)c1cc2c(s1)CCC(C(=O)O)C2` (stereo not given) it was 703 s; in that of `COCCCNC(=O)C1c2cc(OC)c(OC)cc2C(=O)N(C)C1c1ccc(OC)cc1` (stereo not given), 685 s. In turn, `COc1ccccc1-c1cc2c(=O)n(Cc3nc(-c4cccc(F)c4)no3)ccn2n1` had an RP-LC retention time of 1040 s.

Compound `Cc1noc([C@@H]2CC(F)(F)CN2C(=O)c2cc(C)[nH]n2)n1` yielded an RP-LC retention time of 604 s. `CCn1cc(-c2nc(CC(=O)Nc3ccc(Cl)cc3F)cs2)c2cccnc21` gave an RP-LC retention time of 1100 s. Consider `Cc1nnc(-c2cc(NC(=O)c3cc(F)ccc3Cl)c(C)s2)o1`, for which the RP-LC retention time came out at 955 s. The value for `CC(C)C(=O)Nc1nc(-c2ccc3c(c2)NC(=O)CO3)cs1` was 739 s.

Turning to `CC1CCN(S(=O)(=O)c2ccc3nn(Cc4ccccc4F)c(=O)n3c2)CC1`, the RP-LC retention time amounted to 653 s. Compound `CCC(C(=O)N1CCN(c2cc(-c3ccccc3)ncn2)CC1)c1ccccc1` (stereo not given) came in with an RP-LC retention time of 649 s. In the case of `Cc1cc(C)n(Cc2nc(-c3ccc(NC(=O)Cc4cccc(F)c4)cc3)oc2C)n1` it was 930 s; in that of `CCc1cc(=O)n(CC(=O)Nc2ccc(Br)cc2)c(N2CCOCC2)n1`, 829 s. The compound `CCn1cc(CCNC(=O)NCC(=O)OC)c2cccnc21` yielded an RP-LC retention time of 574 s. `O=c1n(Cc2ccccc2)nc2ccc(S(=O)(=O)N3CCCCC3)cn12` came in with an RP-LC retention time of 910 s.

The compound `Cc1cccc2c3c(ccc12)C1=C(C(=O)C3=O)[C@@H](C)CO1` had an RP-LC retention time of 1200 s. Regarding `O=C(NC1CC1)C1CCN(S(=O)(=O)c2ccc(-c3noc(C4CC4)n3)cc2)CC1`, the RP-LC retention time stood at 803 s. For `COc1ccc(OC)c(S(=O)(=O)Nc2cc(-c3nc4cccnc4s3)ccc2C)c1`, the RP-LC retention time was determined as 888 s.

`Cc1nn(-c2ccccc2)c(C)c1S(=O)(=O)N1CCC(C(=O)Nc2ccc(F)c(Cl)c2)CC1` gave an RP-LC retention time of 1050 s. Take `CCCC(C(=O)O)c1c(C)nc2ccc(Cl)cc2c1-c1ccccc1` (stereo not given): the RP-LC retention time is 1010 s. As for `NC(=O)C1CCN(C(=O)CN2CCN(c3ccccc3)CC2)CC1`, the RP-LC retention time was found to be 582 s. The compound `CC(C)CCNC(=O)C1CC(=O)N(CCc2c[nH]c3ccc(Cl)cc23)C1` (stereo not given) displayed an RP-LC retention time of 809 s. On to `COc1ccc(-n2c(=O)c(C(=O)Nc3cccc(Cl)c3)c(O)c3cccnc32)cc1`, for which the RP-LC retention time amounted to 1370 s. In the case of `CCn1cc(CCNC(=O)c2ccccc2OC)c2cccnc21`, the RP-LC retention time is 716 s. The value for `O=C(Cn1nc(C(=O)N2CCCC2)c2ccccc21)N1CCC(N2CCCCC2)CC1` was 581 s. `COc1ccc(C2C(C(=O)Nc3ccc4c(c3)OCO4)c3ccccc3C(=O)N2C)cc1` (stereo not given) yielded an RP-LC retention time of 835 s. Take `COC(=O)C1=CN(c2ccc(C)cc2)c2ccccc2S1(=O)=O`: the RP-LC retention time was determined as 862 s. On to `COc1ccc(NC(=O)CSc2nccc(N3CCN(c4cc(C)ccc4C)CC3)n2)c(OC)c1`, for which the RP-LC retention time came out at 980 s. Compound `CCN(Cc1ccccc1)S(=O)(=O)c1cc(-c2nc(C)cs2)sc1C` yielded an RP-LC retention time of 1200 s.

As to `CNC(=O)[C@@H]1CN(C(=O)Cn2c(=O)oc3ccccc32)C[C@H]1c1n[nH]c(C)n1`, the RP-LC retention time stood at 578 s.

`CCn1ncc(NC(=O)CCc2ccccc2)c(N2CCOCC2)c1=O` gave an RP-LC retention time of 800 s. With `O=C(NCCN1CCCC1)c1ccc(-c2noc(-c3ccccc3)n2)s1`, the RP-LC retention time turned out to be 673 s. The value for `COCCNC(=O)c1ccc2c(c1)N(Cc1ccc(C)cc1)C(=O)CO2` was 748 s; that for `Cc1ccn2cc(-c3ccc(NC(=O)COc4ccccc4)cc3)nc2n1` was 663 s. The value for `COc1ccc(-c2ncc3c(n2)CCN(C(=O)Nc2ccc(C)c(F)c2)C3)cc1` was 996 s; that for `Cc1nccn1C1CN(C(=O)Nc2ccccc2)C1` was 568 s; that for `Cc1cc(Br)ccc1NS(=O)(=O)c1cc(-c2nc(C)c(C)s2)cs1` was 1110 s.
